Test results published in ChEMBL document CHEMBL1201861, “Genomics of Drug Sensitity in Cancer screening data, Wellcome Trust Sanger Institute”.
Where “and” joins values, the source holds several entries; their conditions need not be identical. Equal entries are not always repeated.

Columns and labels:
COR-L279 = assay: SANGER: Inhibition of human COR-L279 cell growth in a cell viability assay.; format: functional, cell-based
EB-3 = assay: cells; format: functional, cell-based; details: Homo sapiens;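 also: human EB-3 cells, growth inhibition read out via a cell viability assay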
Description: SANGER: Inhibition of human EB-3 cell growth in a cell viability assay.

EPLC-272H = assay: cells; format: functional, cell-based; details: Homo sapiens
Description: SANGER: Inhibition of human EPLC-272H cell growth in a cell viability assay.

EVSA-T = assay: cells; format: functional, cell-based, Homo sapiens; details: evsa-t;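 also: growth inhibition of EVSA-T cells, read out with a cell viability assay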
Description: SANGER: Inhibition of human EVSA-T cell growth in a cell viability assay.

EW-22 = assay: cells; format: functional, cell-based; details: Homo sapiens;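 also: growth inhibition of the EW-22 cell line, measured with a cell viability readout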
Description: SANGER: Inhibition of human EW-22 cell growth in a cell viability assay.

G-361 = assay: cells; format: functional, cell-based, Homo sapiens; details: g-361
GDM-1 = assay: cells; format: functional, cell-based; details: Homo sapiens;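 also: cell viability readout used to measure growth inhibition of human GDM-1 cells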
Description: SANGER: Inhibition of human GDM-1 cell growth in a cell viability assay.

HCC1599 = assay: cells; format: functional, cell-based; details: Homo sapiens;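 also: growth inhibition of HCC1599 cells, read out in a cell viability assay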
Description: SANGER: Inhibition of human HCC1599 cell growth in a cell viability assay.

HT55 = assay: cells; format: functional, cell-based, Homo sapiens;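 also: cell viability readout measuring growth inhibition of human HT55 cells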
Description: SANGER: Inhibition of human HT55 cell growth in a cell viability assay.

HuO9 = assay: cells; format: functional, cell-based, Homo sapiens; details: huo9;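 also: growth inhibition of HuO9 cells, read out with a cell viability assay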
Description: SANGER: Inhibition of human HuO9 cell growth in a cell viability assay.

IM-9 = assay: SANGER: Inhibition of human IM-9 cell growth in a cell viability assay.; format: functional, cell-based
IST-SL2 = assay: cells; format: functional, cell-based; details: Homo sapiens;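 also: growth inhibition of human IST-SL2 cells, read out by a cell viability assay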
Description: SANGER: Inhibition of human IST-SL2 cell growth in a cell viability assay.

JIYOYE = assay: cells; format: functional, cell-based; details: Homo sapiens
Description: SANGER: Inhibition of human JiyoyeP-2003 cell growth in a cell viability assay.

K052 = assay: cells; format: functional, cell-based; details: Homo sapiens;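 also: Read-out from a cell viability assay, IC50 reflecting suppression of K052 cell growth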
Description: SANGER: Inhibition of human K052 cell growth in a cell viability assay.

KARPAS-422 = assay: cells; format: functional, cell-based; details: Homo sapiens
Description: SANGER: Inhibition of human KARPAS-422 cell growth in a cell viability assay.

Kasumi 1 = assay: cells; format: functional, cell-based; details: Homo sapiens;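 also: growth inhibition of human Kasumi-1 cells, read out by a cell viability assay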
Description: SANGER: Inhibition of human KASUMI-1 cell growth in a cell viability assay.

KMS-12-PE = assay: cells; format: functional, cell-based; details: Homo sapiens;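 also: growth inhibition of human KMS-12-PE cells, measured with a cell viability assay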
Description: SANGER: Inhibition of human KMS-12-PE cell growth in a cell viability assay.

L-540 = assay: cells; format: functional, cell-based; details: Homo sapiens;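 also: growth inhibition of the human L-540 cell line, read out with a viability assay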
Description: SANGER: Inhibition of human L-540 cell growth in a cell viability assay.

LOUCY = assay: cells; format: functional, cell-based; details: Homo sapiens;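 also: growth inhibition of human LOUCY cells, read out with a cell viability assay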
Description: SANGER: Inhibition of human LOUCY cell growth in a cell viability assay.

LU-165 = assay: cells; format: functional, cell-based; details: Homo sapiens
Description: SANGER: Inhibition of human LU-165 cell growth in a cell viability assay.

MC-CAR = assay: cells; format: functional, cell-based; details: Homo sapiens;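 also: growth inhibition of the human MC-CAR cell line, read out by a cell viability assay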
Description: SANGER: Inhibition of human MC-CAR cell growth in a cell viability assay.

MDA-MB-134-VI = assay: cells; format: functional, cell-based; details: Homo sapiens
Description: SANGER: Inhibition of human MDA-MB-134-VI cell growth in a cell viability assay.

MEL-JUSO = assay: cells; format: functional, cell-based, Homo sapiens; details: mel-juso;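 also: growth inhibition of human MEL-JUSO cells, read out with a cell viability assay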
Description: SANGER: Inhibition of human MEL-JUSO cell growth in a cell viability assay.

MRK-nu-1 = assay: cells; format: functional, cell-based; details: Homo sapiens;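 also: cell viability assay measuring growth suppression of human MRK-nu-1 cells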
Description: SANGER: Inhibition of human MRK-nu-1 cell growth in a cell viability assay.

NCI-H1436 = assay: cells; format: functional, cell-based; details: Homo sapiens;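 also: growth suppression of human NCI-H1436 cells, determined with a cell viability readout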
Description: SANGER: Inhibition of human NCI-H1436 cell growth in a cell viability assay.

NCI-H1522 = assay: cells; format: functional, cell-based; details: Homo sapiens;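 also: growth inhibition of NCI-H1522 cells, read out with a cell viability assay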
Description: SANGER: Inhibition of human NCI-H1522 cell growth in a cell viability assay.

NCI-H1694 = assay: cells; format: functional, cell-based; details: Homo sapiens;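 also: cell viability assay measuring inhibition of growth in human NCI-H1694 cells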
Description: SANGER: Inhibition of human NCI-H1694 cell growth in a cell viability assay.

NCI-H1703 = assay: cells; format: functional, cell-based, Homo sapiens;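 also: growth inhibition of NCI-H1703 cells, read out via a cell viability assay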
Description: SANGER: Inhibition of human NCI-H1703 cell growth in a cell viability assay.

NCI-H1882 = assay: cells; format: functional, cell-based; details: Homo sapiens;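 also: growth inhibition of the cell line, determined with a viability assay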
Description: SANGER: Inhibition of human NCI-H1882 cell growth in a cell viability assay.

NCI-H2141 = assay: cells; format: functional, cell-based; details: Homo sapiens;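 also: growth inhibition of human NCI-H2141 cells, read out with a cell viability assay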
Description: SANGER: Inhibition of human NCI-H2141 cell growth in a cell viability assay.

NCI-H2291 = assay: cells; format: functional, cell-based; details: Homo sapiens
Description: SANGER: Inhibition of human NCI-H2291 cell growth in a cell viability assay.

NCI-H460 = assay: cells; format: functional, cell-based, Homo sapiens; details: nci-h460;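 also: cell viability assay scoring growth inhibition of human NCI-H460 cells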
Description: SANGER: Inhibition of human NCI-H460 cell growth in a cell viability assay.

NCI-H524 = assay: cells; format: functional, cell-based; details: Homo sapiens;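 also: growth inhibition of human NCI-H524 cells, read out through a cell viability assay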
Description: SANGER: Inhibition of human NCI-H524 cell growth in a cell viability assay.

NCI-H630 = assay: cells; format: functional, cell-based, Homo sapiens; details: nci-h630;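 also: growth inhibition of NCI-H630 cells, read out with a cell viability assay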
Description: SANGER: Inhibition of human NCI-H630 cell growth in a cell viability assay.

NCI-H64 = assay: cells; format: functional, cell-based; details: Homo sapiens;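 also: growth inhibition of NCI-H64 cells, read out with a cell viability assay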
Description: SANGER: Inhibition of human NCI-H64 cell growth in a cell viability assay.

NCI-H889 = assay: cells; format: functional, cell-based; details: Homo sapiens;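 also: cell growth inhibition of the cell line, read out with a viability assay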
Description: SANGER: Inhibition of human NCI-H889 cell growth in a cell viability assay.

SNU-16 = assay: cells; format: functional, cell-based; details: Homo sapiens;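 also: growth inhibition of human SNU-16 cells, determined with a cell viability readout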
Description: SANGER: Inhibition of human NCI-SNU-16 cell growth in a cell viability assay.

RH-18 = assay: cells; format: functional, cell-based; details: Homo sapiens, Rh18;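 also: growth inhibition of human RH-18 cells, read out with a cell viability assay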
Description: SANGER: Inhibition of human RH-18 cell growth in a cell viability assay.

Raji = assay: cells; format: functional, cell-based; details: Homo sapiens;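 also: cell viability assay measuring inhibition of Raji cell growth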
Description: SANGER: Inhibition of human Raji cell growth in a cell viability assay.

SCLC-21H = assay: cells; format: functional, cell-based; details: Homo sapiens;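 also: growth inhibition of cultured human SCLC-21H cells, read out with a cell viability assay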
Description: SANGER: Inhibition of human SCLC-21H cell growth in a cell viability assay.

SK-MM-2 = assay: cells; format: functional, cell-based; details: Homo sapiens;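 also: growth inhibition of human SK-MM-2 cells, read out with a cell viability assay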
Description: SANGER: Inhibition of human SK-MM-2 cell growth in a cell viability assay.

SNU-C1 = assay: cells; format: functional, cell-based; details: Homo sapiens;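 also: growth inhibition of SNU-C1 human cells, read out by a cell viability assay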
Description: SANGER: Inhibition of human SNU-C1 cell growth in a cell viability assay.

ST486 = assay: SANGER: Inhibition of human ST486 cell growth in a cell viability assay.; format: functional, cell-based
SU-DHL-1 = assay: SANGER: Inhibition of human SU-DHL-1 cell growth in a cell viability assay.; format: functional, cell-based
SUP-T1 = assay: cells; format: functional, cell-based; details: Homo sapiens;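 also: growth inhibition of human SUP-T1 cells, read out as cell viability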
Description: SANGER: Inhibition of human SUP-T1 cell growth in a cell viability assay.

SW 1116 = assay: cells; format: functional, cell-based; details: Homo sapiens;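 also: growth inhibition of SW1116 cells, read out with a cell viability assay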
Description: SANGER: Inhibition of human SW1116 cell growth in a cell viability assay.

23132-87 = assay: cells; format: functional, cell-based, Homo sapiens
Description: SANGER: Inhibition of human 23132-87 cell growth in a cell viability assay.

A549 = assay: cells; format: functional, cell-based; details: Homo sapiens;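 also: growth inhibition of A549 cells, read out with a cell viability assay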
Description: SANGER: Inhibition of human A549 cell growth in a cell viability assay.

BC-3 = assay: cells; format: functional, cell-based; details: Homo sapiens;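 also: cell viability assay measuring growth inhibition of human BC-3 cells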
Description: SANGER: Inhibition of human BC-3 cell growth in a cell viability assay.

BL-41 = assay: cells; format: functional, cell-based; details: Homo sapiens;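 also: growth inhibition of human BL-41 cells, read out with a cell viability assay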
Description: SANGER: Inhibition of human BL-41 cell growth in a cell viability assay.

BL-70 = assay: SANGER: Inhibition of human BL-70 cell growth in a cell viability assay.; format: functional, cell-based
BT-549 = assay: cells; format: functional, cell-based; details: Homo sapiens
Description: SANGER: Inhibition of human BT-549 cell growth in a cell viability assay.

CA46 = assay: cells; format: functional, cell-based; details: Homo sapiens;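 also: growth inhibition of human CA46 cells, read out by a cell viability assay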
Description: SANGER: Inhibition of human CA46 cell growth in a cell viability assay.

CAL-148 = assay: cells; format: functional, cell-based; details: Homo sapiens
Description: SANGER: Inhibition of human CAL-148 cell growth in a cell viability assay.

TE-15 = assay: cells; format: functional, cell-based; details: Homo sapiens;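 also: cell viability readout of growth inhibition in TE-15 cells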
Description: SANGER: Inhibition of human TE-15 cell growth in a cell viability assay.

UACC-812 = assay: cells; format: functional, cell-based; details: Homo sapiens
Description: SANGER: Inhibition of human UACC-812 cell growth in a cell viability assay.

WSU-NHL = assay: cells; format: functional, cell-based; details: Homo sapiens;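 also: growth inhibition of human WSU-NHL cells, read out with a cell viability assay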
Description: SANGER: Inhibition of human WSU-NHL cell growth in a cell viability assay.

YH-13 = assay: cells; format: functional, cell-based; details: Homo sapiens;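 also: cell viability readout of growth suppression in the human YH-13 cell line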
Description: SANGER: Inhibition of human YH-13 cell growth in a cell viability assay.

YT = assay: cells; format: functional, cell-based; details: Homo sapiens
Description: SANGER: Inhibition of human YT cell growth in a cell viability assay.

CESS = assay: SANGER: Inhibition of human CESS cell growth in a cell viability assay.; format: functional, cell-based
CMK = assay: cells; format: functional, cell-based; details: Homo sapiens;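 also: growth inhibition of CMK cells, read out as cell viability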
Description: SANGER: Inhibition of human CMK cell growth in a cell viability assay.

Cc1cc([C@@H](C)Nc2ccccc2C(=O)O)c2nc(N3CCOCC3)cc(=O)n2c1 [AZD-6482]
IC50 (COR-L279): > 5.12 µM | IC50 (EB-3): > 5.12 µM | IC50 (EPLC-272H): > 5.12 µM | IC50 (EVSA-T): 3.38 µM and > 5.12 µM | IC50 (EW-22): > 5.12 µM | IC50 (G-361): 3.9 µM and > 5.12 µM | IC50 (GDM-1): 2.24 µM | IC50 (HCC1599): > 5.12 µM | IC50 (HT55; Homo sapiens, HT55): > 5.12 µM | IC50 (HT55; ht55): > 5.12 µM | IC50 (HuO9): 1.61 µM and > 5.12 µM | IC50 (IM-9): > 5.12 µM | IC50 (IST-SL2): > 5.12 µM | IC50 (JIYOYE): > 5.12 µM | IC50 (K052): > 5.12 µM | IC50 (KARPAS-422): 1.54 µM | IC50 (Kasumi 1): 2.06 µM | IC50 (KMS-12-PE): > 5.12 µM | IC50 (L-540): > 5.12 µM | IC50 (LOUCY): > 5.12 µM | IC50 (LU-165): > 5.12 µM | IC50 (MC-CAR): > 5.12 µM | IC50 (MDA-MB-134-VI): > 5.12 µM | IC50 (MEL-JUSO): > 5.12 µM | IC50 (MRK-nu-1): > 5.12 µM | IC50 (NCI-H1436): > 5.12 µM | IC50 (NCI-H1522): > 5.12 µM | IC50 (NCI-H1694): > 5.12 µM | IC50 (NCI-H1703; Homo sapiens, NCI-H1703): > 5.12 µM | IC50 (NCI-H1703; nci-h1703): > 5.12 µM | IC50 (NCI-H1882): > 5.12 µM | IC50 (NCI-H2141): > 5.12 µM | IC50 (NCI-H2291): 1.58 µM | IC50 (NCI-H460): > 5.12 µM | IC50 (NCI-H524): > 5.12 µM | IC50 (NCI-H630): > 5.12 µM | IC50 (NCI-H64): 2.62 µM | IC50 (NCI-H889): > 5.12 µM | IC50 (SNU-16): > 5.12 µM | IC50 (RH-18): > 5.12 µM | IC50 (Raji): > 5.12 µM | IC50 (SCLC-21H): > 5.12 µM | IC50 (SK-MM-2): > 5.12 µM | IC50 (SNU-C1): > 5.12 µM | IC50 (ST486): > 5.12 µM | IC50 (SU-DHL-1): 0.568 µM | IC50 (SUP-T1): > 5.12 µM | IC50 (SW 1116): > 5.12 µM | IC50 (23132-87): 3.36 µM | IC50 (23132-87; Homo sapiens): > 5.12 µM | IC50 (A549): > 5.12 µM | IC50 (BC-3): > 5.12 µM | IC50 (BL-41): > 5.12 µM | IC50 (BL-70): 4.86 µM | IC50 (BT-549): > 5.12 µM | IC50 (CA46): > 5.12 µM | IC50 (CAL-148): 4.18 µM | IC50 (TE-15): 4.67 µM | IC50 (UACC-812): > 5.12 µM | IC50 (WSU-NHL): > 5.12 µM | IC50 (YH-13): 1.95 µM | IC50 (YT): 0.121 µM | IC50 (CESS): 4.8 µM | IC50 (CMK): 4.57 µM
